Measurements as given in PubChem BioAssay AID651659 (Broad Institute, 2012).
Active and inactive are the calls of the source.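 The calls were made as follows: active = signal drops, with AC50 within twice each sample's top valid tested dose; inconclusive = flat curve at 30 to 70% inhibition, or poor fit; inactive = signal moves against the expected drop, plus the rest.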

biological target: Mitogen-activated protein kinase 3 (Homo sapiens) (UniProt P27361); experiment: MAPK3 enzymatic activity blockade – biochemical, ADP-Glo luminescence, dry powder, set 2, selectivity assay for Dyrk1A inhibitor NFAT project, dose response (AID 651659); conditions: ERK1 kinase, 120 min
Sequence (P27361 whole entry, looked up): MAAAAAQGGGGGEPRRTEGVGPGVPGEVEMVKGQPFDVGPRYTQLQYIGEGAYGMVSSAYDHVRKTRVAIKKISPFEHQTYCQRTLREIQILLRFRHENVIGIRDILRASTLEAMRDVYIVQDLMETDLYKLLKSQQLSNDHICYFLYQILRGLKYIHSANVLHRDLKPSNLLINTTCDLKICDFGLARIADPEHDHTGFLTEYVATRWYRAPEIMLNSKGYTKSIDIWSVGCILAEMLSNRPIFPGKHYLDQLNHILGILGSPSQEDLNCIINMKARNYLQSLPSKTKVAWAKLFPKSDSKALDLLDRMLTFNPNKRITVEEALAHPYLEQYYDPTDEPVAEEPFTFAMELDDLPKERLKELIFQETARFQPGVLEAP

Row | AC50 | SMILES
1 | > 20 µM (inactive) | CN(CC(=O)Nc1nc2ccc(F)cc2s1)S(=O)(=O)c1ccc(Cl)cc1
2 | > 20 µM (inactive) | COc1ccc(-c2csc(NC(=O)CSCC(=O)N3CCCC3)n2)cc1
3 | 5.91 µM | CN(CC(=O)Nc1nc2ccc(Cl)cc2s1)S(=O)(=O)c1ccc(C#N)cc1

same assay, conditions: ERK1 kinase, 120 min, at 1.1 µM (top of the series)

Row | activity change, negative = inhibition | SMILES
4 | inactive | CC(C)n1cnc2cc(NCc3cccc4ccccc34)ccc21

same assay, conditions: ERK1 kinase, 120 min, at 10 µM (top of the series)

Row | SMILES | activity change, negative = inhibition
5 | COc1ccc2c(Cl)c(C(=O)NC(C)C)sc2c1 | inactive
6 | COc1ccc(OC)c(C2=Nn3c(nnc3-c3ccccn3)SC2)c1 | inactive
7 | COc1ccc(OC)c(CNC(=O)c2sc3ccccc3c2Cl)c1 | inactive
8 | COc1ccc(OC)c(C2=Nn3c(nnc3-c3ccccc3)SC2)c1 | inactive
9 | COc1ccc2c(Cl)c(C(=O)NCc3ccccc3)sc2c1 | inactive
10 | COc1ccc(OC)c(C2=Nn3c(nnc3-c3ccncc3)SC2)c1 | inactive
11 | COc1ccc2nc(NC(=O)C3CCCN(S(=O)(=O)c4cccc5nsnc45)C3)sc2c1 (stereo not given) | inactive
12 | COc1ccc(C2=Nn3c(nnc3-c3cccnc3)SC2)cc1 | inactive
13 | COc1ccc(NC(=O)C2CCCN(S(=O)(=O)c3cccc4nonc34)C2)cc1 (stereo not given) | inactive
14 | Clc1ccc(CSc2nc(Nc3ccc4c(c3)OCO4)c3ccccc3n2)cc1 | inactive
15 | COc1ccc2c(Cl)c(C(=O)NCc3cccnc3)sc2c1 | inactive
16 | C=CCn1cnc2scc(-c3ccc(OC)cc3)c2c1=O | inactive
17 | COc1ccc2c(Cl)c(C(N)=O)sc2c1 | inactive
18 | COc1ccc(C2=Nn3c(nnc3-c3cccnc3)SC2)cc1OC | inactive
19 | COc1ccc2c(c1)[nH]c1c(C)nccc12 | inactive
20 | Cc1csc(NC(=O)C2CCCN(S(=O)(=O)c3cccc4nonc34)C2)n1 (stereo not given) | inactive
21 | O=C(NCc1ccccc1)c1sc2ccccc2c1Cl | inactive
22 | COc1ccc(C2=Nn3c(nnc3-c3ccncc3)SC2)cc1 | inactive
23 | O=C(NCc1ccco1)c1sc2ccccc2c1Cl | inactive
24 | Cc1ccccc1S(=O)(=O)Cc1ccc(C(=O)NC(C)c2ccc3c(c2)OCCO3)o1 (stereo not given) | inactive
25 | COc1cccc(C2=Nn3c(nnc3-c3ccccc3)SC2)c1 | inactive

Next, values leading:

Row | activity change, negative = inhibition | SMILES
26 | inactive | COc1ccc2nc(NC(=O)C3CCN(S(=O)(=O)c4cccnc4)CC3)sc2c1
27 | inactive | CN(CC(=O)Nc1nc2ccc(Cl)cc2s1)S(=O)(=O)c1ccc(Cl)cc1
28 | inactive | CN(CC(=O)Nc1nccs1)S(=O)(=O)c1ccc(Cl)cc1
29 | inactive | CCOc1ccc2nc(NC(=O)COc3ccc(Cl)c(OC)c3)sc2c1
30 | inactive | CN(CC(=O)Nc1nc2ccccc2s1)S(=O)(=O)c1ccc(Cl)cc1
31 | inactive | COc1ccc2nc(NC(=O)CN(C)S(=O)(=O)c3ccc(F)cc3)sc2c1
32 | inactive | COc1ccc(CNC(=O)c2sc3ccccc3c2Cl)cc1
33 | inactive | COc1ccc2nc(NC(=O)C3CCN(S(=O)(=O)c4cccc5nonc45)CC3)sc2c1
34 | inactive | CCCCN(c1nc2ccccc2s1)S(=O)(=O)c1ccc(Cl)cc1
35 | inactive | CN(CC(=O)Nc1nc2ccccc2s1)S(=O)(=O)c1ccccc1
36 | inactive | COc1ccc2nc(NC(=O)C3CCN(S(=O)(=O)c4cccc5nsnc45)CC3)sc2c1
37 | inactive | COc1ccc2nc(NC(=O)C3CCN(S(=O)(=O)c4ccc(C)cc4)CC3)sc2c1
38 | inactive | COc1ccc(S(=O)(=O)N2CCCC(C(=O)Nc3nc4ccccc4s3)C2)cc1 (stereo not given)
39 | inactive | Cc1ccc(S(=O)(=O)N(C)CC(=O)Nc2nc3ccc(Cl)cc3s2)cc1C
40 | inactive | Cc1sc(NC(=O)CSCc2ccccc2)nc1-c1ccccc1
41 | inactive | CCOc1ccc2nc(NC(=O)C3CCCN(S(=O)(=O)c4cccc5cccnc45)C3)sc2c1 (stereo not given)
42 | inactive | COc1ccc2nc(NC(=O)C3CCCN(S(=O)(=O)c4cccc5nonc45)C3)sc2c1 (stereo not given)
43 | inactive | Cc1cccc2sc(NC(=O)CN(C)S(=O)(=O)c3ccc(Cl)cc3)nc12
44 | inactive | Cc1ccc(S(=O)(=O)N(C)CC(=O)Nc2nc3ccccc3s2)cc1
45 | inactive | COc1ccc2nc(NC(=O)C3CCCN(S(=O)(=O)c4cccc5cccnc45)C3)sc2c1 (stereo not given)
